Values quoted from earlier work in patent publication US5922690A (priority 1997, dated 1999).

Tested on: rabbits
Settings: in vivo

Multiple of the antithrombotic dose injected without increasing bleeding (rabbit) | Bleeding from a standardized incision in a rabbit's ear, heparin versus DS | Substance
up to forty times |  | dermatan sulfate [DS]
 | much greater | heparin
